From patent US20250360167A1 (Keryx Biopharmaceuticals, Inc., priority 2013, published 2025)

Columns and labels:
hemoglobin [1] = experiment: Phase 2 trial (Example 2): hemoglobin; assay type: in vivo, human; details: ITT group, n = 72
Excerpt: (§1) The key secondary endpoints of the study were the mean changes in ferritin, hemoglobin and FGF-23 from baseline to the end of the 12-week treatment period versus placebo in the ITT group.

C-Terminal FGF-23 = experiment: Phase 2 trial (Example 2): C-terminal FGF-23; assay type: in vivo, human; details: n = 63
Excerpt: as §1

[2] = Phase 2 trial (Example 2): safety and tolerability; assay type: in vivo, human
Experimental: The safety population in the study included all randomized patients who took at least one dose of study drug.
Serious adverse events occurred in six KRX-0502 subjects (8%) versus ten placebo subjects (14%). Two deaths were recorded in the study, both from the placebo group.

ferritin = experiment: Phase 2 trial (Example 2): ferritin; assay type: in vivo, human
Excerpt: Change in serum phosphorus, ferritin and TSAT levels from baseline to end of treatment after 12 weeks are the primary endpoints.
as §1

[3] = Dissolution testing, USP <711> vessels, Apparatus II; assay type: physicochemical; details: relative to standard = 100
hemoglobin [4] = experiment: Phase 3 trial (Example 1): hemoglobin; assay type: in vivo, human; set-up: Hemoglobin, Mean / Hemoglobin, Median / Hemoglobin, Change from Baseline, Mean / Hemoglobin, Change from Baseline, Median / Hemoglobin, LS Mean: unit not given here; details: for Hemoglobin, Mean / Hemoglobin, Median / Hemoglobin, LS Mean / Hemoglobin, Change from Baseline, Mean / Hemoglobin, Change from Baseline, Median / Hemoglobin, Treatment Differences, LS Mean (KRX-0502) − LS Mean (control), (SE): Table 17
Excerpt: Complete Blood Count (CBC) (white blood cell [WBC] count, white blood cell types [WBC differential], red blood cell [RBC] count, hematocrit [HCT], hemoglobin [Hgb], red blood cell indices, platelet [thrombocyte] count) was done at the Randomization Visit (Visit 4); at Visits 11 (Week 12), 14 (Week 24), 17 (Week 36), 20 (Week 48), and 21 (Week 52) of the 52-week Safety Assessment Period; and at Visit 25 (Week 56) of the Efficacy Assessment Period.

serum phosphorus = experiment: Phase 3 trial (Example 1), four-week placebo-controlled Efficacy Assessment Period: serum phosphorus; assay type: in vivo, human; details: for Serum Phosphorus, Mean / Serum Phosphorus, Median: Efficacy Assessment Period; for Serum Phosphorus, Mean / Serum Phosphorus, Median / Serum Phosphorus, LS Mean / Serum Phosphorus, Treatment Differences, LS Mean (KRX-0502) − LS Mean (Placebo), (SE) / Serum Phosphorus, Change from Baseline, Mean / Serum Phosphorus, Change from Baseline, Median: Table 14; for Serum Phosphorus, Change from Baseline, Mean / Serum Phosphorus, Change from Baseline, Median: Week-52 baseline
Excerpt: This trial was a three-period, multicenter, safety and efficacy clinical trial.
Period 3 (Efficacy Assessment Period). Following the Safety Assessment Period, those patients randomized to treatment with ferric citrate entered a four-week, randomized, open-label, placebo-controlled Efficacy Assessment Period.
Serum phosphorus and calcium were checked at Visit 5 (Week 1), and every two weeks during the first 12 weeks after Visit 4 (Randomization Visit), and monthly for the rest of the Safety Assessment Period. During the Efficacy Assessment Period, serum phosphorus and calcium were drawn weekly. These values guided study drug administration. While on study drug, the use of other phosphate binders was not permitted. […] The titration of calcium acetate and sevelamer carbonate throughout the 52-week Safety Assessment Period were according to the current package inserts for these agents and/or at the discretion of the site PI.
Serum phosphorus and calcium were performed at Screening (Visit 0); weekly during the Washout Period after Visit 1 (Week −2); at Visit 4 (Randomization Visit); at Visits 5 (Week 1), 6 (Week 2), 7 (Week 4), 8 (Week 6), 9 (Week 8), 10 (Week 10), 11 (Week 12), 12 (Week 16), 13 (Week 20), 14 (Week 24), 15 (Week 28), 16 (Week 32), 17 (Week 36), 18 (Week 40), 19 (Week 44), 20 (Week 48), and 21 (Week 52) of the 52-week Safety Assessment Period; and at Visits 22 (Week 53), 23 (Week 54), 24 (Week 55) and 25 (Week 56) of the Efficacy Assessment Period.
There were two unique and distinct baseline assessments. The baseline for the Safety Assessment Period was the Randomization Visit (Visit 4) and was defined as “Week-O-baseline.” The baseline for the Efficacy Assessment Period was the last visit of the Safety Assessment Period (Visit 21, Week 52) and was defined as “study-baseline.”
The primary efficacy variable was analyzed via an ANCOVA model with treatment as the fixed effect and study-baseline as the covariate. Between-treatment differences were estimated and two-sided 95% confidence intervals for the differences were presented.

[5] = Week 12, last observation carried forward
[6] = Day 0 Baseline, Safety Assessment Period

iron (+3), x (1, 2, 3-propanetricarboxylic acid, 2-hydroxy-), y (H2O) [KRX-0502]
Mean Hemoglobin, Baseline (hemoglobin [1]; Baseline): 10.5 g/dL
Mean Hemoglobin, End of Treatment (Week 12) (hemoglobin [1]; [5]): 11.0 g/dL
Mean C-Terminal FGF-23, Baseline (C-Terminal FGF-23; Baseline): 468 pg/mL
Mean C-Terminal FGF-23, End of Treatment (Week 12) (C-Terminal FGF-23; [5]): 316 pg/mL
differences in serum calcium levels and liver enzymes (ALT, AST) ([2]; KRX-0502 vs placebo): no clinically meaningful or statistically significant differences
Serious adverse events, % of subjects ([2]; Phase 2 study): 8%
Serious adverse events, number of subjects ([2]; Phase 2 study): six
study discontinuations due to hypophosphatemia ([2]; Phase 2 study): no study discontinuations due to hypophosphatemia
safety and tolerability ([2]; Phase 2 study, safety population): safe and well-tolerated
discontinuation rates ([2]; including Treatment Failures): 19%
Mean Ferritin, Baseline (ferritin; Baseline, ITT group, n = 72): 116 ng/mL
Mean Ferritin, End of Treatment (Week 12) (ferritin; Week 12, last observation carried forward, ITT group, n = 72): 189 ng/mL
ending ferritin level at Visit 11 (Week 12) (ferritin; sample size assumption): approximately 300 ng/mL
Dissolution testing, percentage dissolved ([3]; 5 minutes): ≥ 91%
Dissolution testing, percentage dissolved ([3]; 15 minutes): ≥ 96%
Dissolution testing, percentage dissolved ([3]; 30 minutes): ≥ 96%
Dissolution testing, percentage dissolved ([3]; 60 minutes): ≥ 95%
Mean Hemoglobin, LS Mean Difference from Active Control Group at Week 52 (hemoglobin [4]; ANCOVA, Table E): 0.4 g/dL
Mean Hemoglobin (hemoglobin [4]; Baseline (Day 0), Table E): 11.6 g/dL
Hemoglobin, Mean (hemoglobin [4]; [6]): 11.61
Hemoglobin, Median (hemoglobin [4]; [6]): 11.45
Mean Hemoglobin, Change from Baseline at Week 52 (hemoglobin [4]; Table E): -0.2 g/dL
Hemoglobin, LS Mean (hemoglobin [4]; Week 12, ANCOVA): 11.83
Hemoglobin, Change from Baseline, Mean (hemoglobin [4]; Week 12): 0.19
Hemoglobin, Change from Baseline, Median (hemoglobin [4]; Week 12): 0.10
Hemoglobin, Mean (hemoglobin [4]; Week 12): 11.82
Hemoglobin, Median (hemoglobin [4]; Week 12): 11.70
Hemoglobin, Treatment Differences, LS Mean (KRX-0502) − LS Mean (control), (SE) (hemoglobin [4]; Week 12): 0.30 (0.14)
Hemoglobin, LS Mean (hemoglobin [4]; Week 24, ANCOVA): 11.56
Hemoglobin, Change from Baseline, Mean (hemoglobin [4]; Week 24): −0.08
Hemoglobin, Change from Baseline, Median (hemoglobin [4]; Week 24): −0.10
Hemoglobin, Mean (hemoglobin [4]; Week 24): 11.55
Hemoglobin, Median (hemoglobin [4]; Week 24): 11.30
Hemoglobin, Treatment Differences, LS Mean (KRX-0502) − LS Mean (control), (SE) (hemoglobin [4]; Week 24): 0.12 (0.13)
Hemoglobin, LS Mean (hemoglobin [4]; Week 36, ANCOVA): 11.55
Hemoglobin, Change from Baseline, Mean (hemoglobin [4]; Week 36): −0.08
Hemoglobin, Change from Baseline, Median (hemoglobin [4]; Week 36): −0.10
Hemoglobin, Mean (hemoglobin [4]; Week 36): 11.54
Hemoglobin, Median (hemoglobin [4]; Week 36): 11.20
Hemoglobin, Treatment Differences, LS Mean (KRX-0502) − LS Mean (control), (SE) (hemoglobin [4]; Week 36): 0.27 (0.14)
Hemoglobin, LS Mean (hemoglobin [4]; Week 48, ANCOVA): 11.52
Hemoglobin, Change from Baseline, Mean (hemoglobin [4]; Week 48): −0.12
Hemoglobin, Change from Baseline, Median (hemoglobin [4]; Week 48): −0.20
Hemoglobin, Mean (hemoglobin [4]; Week 48): 11.50
Hemoglobin, Median (hemoglobin [4]; Week 48): 11.20
Hemoglobin, Treatment Differences, LS Mean (KRX-0502) − LS Mean (control), (SE) (hemoglobin [4]; Week 48): 0.30 (0.14)
Hemoglobin, LS Mean (hemoglobin [4]; Week 52, ANCOVA): 11.44
Mean Hemoglobin (hemoglobin [4]; Week 52, LOCF, Table E): 11.4 g/dL
Hemoglobin, Change from Baseline, Mean (hemoglobin [4]; Week 52): −0.20
Hemoglobin, Change from Baseline, Median (hemoglobin [4]; Week 52): −0.20
Hemoglobin, Mean (hemoglobin [4]; Week 52): 11.42
Hemoglobin, Median (hemoglobin [4]; Week 52): 11.20
Hemoglobin, Treatment Differences, LS Mean (KRX-0502) − LS Mean (control), (SE) (hemoglobin [4]; Week 52): 0.36 (0.14)
Mean Serum Phosphorus (serum phosphorus; End of Treatment (Week 56), LOCF, Table A): 4.9 mg/dL
Serum Phosphorus, Mean (serum phosphorus; Week 52 Baseline): 5.16
Serum Phosphorus, Median (serum phosphorus; Week 52 Baseline): 5.10
Serum Phosphorus, LS Mean (serum phosphorus; Week 53, ANCOVA): 4.92
Serum Phosphorus, Mean (serum phosphorus; Week 53): 4.90
Serum Phosphorus, Median (serum phosphorus; Week 53): 4.95
Serum Phosphorus, Treatment Differences, LS Mean (KRX-0502) − LS Mean (Placebo), (SE) (serum phosphorus; Week 53): −1.73 (0.21)
Serum Phosphorus, Change from Baseline, Mean (serum phosphorus; Week 53): −0.31
Serum Phosphorus, Change from Baseline, Median (serum phosphorus; Week 53): −0.30
Serum Phosphorus, LS Mean (serum phosphorus; Week 54, ANCOVA): 4.80
Serum Phosphorus, Mean (serum phosphorus; Week 54): 4.78
Serum Phosphorus, Median (serum phosphorus; Week 54): 4.70
Serum Phosphorus, Treatment Differences, LS Mean (KRX-0502) − LS Mean (Placebo), (SE) (serum phosphorus; Week 54): −2.08 (0.22)
Serum Phosphorus, Change from Baseline, Mean (serum phosphorus; Week 54): −0.36
Serum Phosphorus, Change from Baseline, Median (serum phosphorus; Week 54): −0.40
Serum Phosphorus, LS Mean (serum phosphorus; Week 55, ANCOVA): 4.76
Serum Phosphorus, Mean (serum phosphorus; Week 55): 4.75
Serum Phosphorus, Median (serum phosphorus; Week 55): 4.60
Serum Phosphorus, Treatment Differences, LS Mean (KRX-0502) − LS Mean (Placebo), (SE) (serum phosphorus; Week 55): −2.18 (0.23)
Serum Phosphorus, Change from Baseline, Mean (serum phosphorus; Week 55): −0.41
Serum Phosphorus, Change from Baseline, Median (serum phosphorus; Week 55): −0.50
Serum Phosphorus, LS Mean (serum phosphorus; Week 56, ANCOVA): 4.94
Mean Serum Phosphorus, Least Squares (LS) Mean Difference from Placebo (serum phosphorus; Week 56, ANCOVA, Table A): -2.3 mg/dL
Serum Phosphorus, Mean (serum phosphorus; Week 56): 4.92
Serum Phosphorus, Median (serum phosphorus; Week 56): 4.60
Serum Phosphorus, Treatment Differences, LS Mean (KRX-0502) − LS Mean (Placebo), (SE) (serum phosphorus; Week 56): −2.28 (0.23)
Serum Phosphorus, Change from Baseline, Mean (serum phosphorus; Week 56): −0.23
Serum Phosphorus, Change from Baseline, Median (serum phosphorus; Week 56): −0.50
Mean Serum Phosphorus (serum phosphorus; baseline Week 52, Table A): 5.2 mg/dL
Mean Serum Phosphorus, Change from Baseline at Week 56 (serum phosphorus; baseline Week 52, Table A): -0.3 mg/dL
